Results as given in patent US9592272B2, “Treatment of osteoarthritis with incretin hormones or analogues thereof” (UNIVERSITE PIERRE ET MARIE CURIE (PARIS 6), priority 2012, dated 2017).

How the values were obtained:
[1] = clinical trials (Krzeski et al., 2007); cited from earlier work
[2] = test system: MMP-3, MMP-9 and MMP-13 expression in osteoblasts; assay: Expression of MMP-3, MMP-9 and MMP-13 in primary osteoblasts in response to IL-1β (real-time quantitative RT-PCR); format: cell-based, murine; conditions: peptide 10 nM, IL-1β 0.1 or 1 ng/ml, 24 h; for overexpression of the prodegradative enzymes MMP-3 and MMP-13 in the osteoblasts in response to an IL-1β treatment: FIGS. 2A, B and C
Protocol: The murine osteoblasts were obtained after enzymatic digestion of the skulls of 4- to 6-day-old mice. The cells were amplified for 3 weeks, in the presence of ascorbic acid and β-glycerophosphate. The osteoblasts at the end of culture formed a three-dimensional membrane (Sanchez et al., 2009).
(§1) The cultures were deprived in a serum-free culture medium for 24 h before treatment.
(§2) The RNAs were extracted using the RNeasy Mini kit (Qiagen) and then reverse-transcribed using the Omniscript kit (Qiagen). The expression level of the genes of interest was quantified by real-time PCR (Light Cycler LC480), relative to the HPRT reference gene, using the following primers: […]

[3] = test system: MMP-3, MMP-9 and MMP-13 expression in chondrocytes; assay: Expression of MMP-3, MMP-9 and MMP-13 in primary chondrocytes in response to IL-1β (real-time quantitative RT-PCR); format: cell-based, murine; conditions: peptide 10 nM; IL-1β 0.1 or 1 ng/ml, 24 h; FIG. 1
Protocol: (§3) The murine chondrocytes were obtained after enzymatic digestion of femoral heads and knees of 4- to 6-day-old mice. The cells were amplified in a monolayer for 1 week (Gosset et al., 2008).
as §1, §2

[4] = in vivo, iv; cited from earlier work
[5] = test system: prostaglandin E2 (PGE2) release by chondrocytes; assay: Prostaglandin E2 release by chondrocytes in response to IL-1β (EIA on culture supernatants); format: cell-based, murine
Protocol: as §3, §1
The amount of PGE2 produced by the cells was measured by means of the prostaglandin E2 monoclonal EIA kit (Cayman) using the culture supernatants.

COc1ccc(C(=O)Nc2ccc(S(=O)(=O)NC(CC#CCN3CCOCC3)C(=O)O)cc2)cc1 (centres unmarked) [PG-116800]
toxicity revealed during clinical trials [1]: musculoskeletal toxicity

GLP-1 (7-37)
overexpression of the prodegradative enzymes MMP-3 and MMP-13 in the osteoblasts in response to an IL-1β treatment [2]: inhibits
overexpression of the prodegradative enzymes MMP-3, MMP-9 and/or MMP-13 in the chondrocytes in response to an IL-1β treatment [3]: inhibits

GIP (1-42)
overexpression of the prodegradative enzymes MMP-3 and MMP-13 in the osteoblasts in response to an IL-1β treatment [2]: inhibits
overexpression of the prodegradative enzymes MMP-3, MMP-9 and/or MMP-13 in the chondrocytes in response to an IL-1β treatment [3]: inhibits
half-life time [4]: approximately 2 minutes

GLP-1 (7-36) amide
release of prostaglandin E2 (PGE2) by the chondrocytes in response to an IL-1β treatment ([5]; peptide 10 nM, IL-1β 1 ng/ml, 24 h, FIG. 3): inhibits
induction of PGE2 by peptide alone, chondrocytes ([5]; peptide alone, without IL-1β): does not induce
overexpression of MMP-9 in the osteoblasts in response to an IL-1β treatment ([2]; FIG. 2D): inhibits
overexpression of the prodegradative enzymes MMP-3 and MMP-13 in the osteoblasts in response to an IL-1β treatment [2]: inhibits
overexpression of the prodegradative enzymes MMP-3, MMP-9 and/or MMP-13 in the chondrocytes in response to an IL-1β treatment [3]: inhibits
